# Values quoted from earlier work, collected in PMC4027949 (ACS Chemical Biology, 2014).
# Experiments:
# PI3K = conditions: read-out: IC50 PI3K; Ibrutinib comparison values
# P38 = conditions: read-out: IC50 P38; Ibrutinib comparison values
# PDGFRa = PDGFRa (Homo sapiens, UniProt P16234); conditions: read-out: IC50 PDGFRa; Ibrutinib comparison values
# PDGFRa, sequence (P16234 24-1089, species assumed): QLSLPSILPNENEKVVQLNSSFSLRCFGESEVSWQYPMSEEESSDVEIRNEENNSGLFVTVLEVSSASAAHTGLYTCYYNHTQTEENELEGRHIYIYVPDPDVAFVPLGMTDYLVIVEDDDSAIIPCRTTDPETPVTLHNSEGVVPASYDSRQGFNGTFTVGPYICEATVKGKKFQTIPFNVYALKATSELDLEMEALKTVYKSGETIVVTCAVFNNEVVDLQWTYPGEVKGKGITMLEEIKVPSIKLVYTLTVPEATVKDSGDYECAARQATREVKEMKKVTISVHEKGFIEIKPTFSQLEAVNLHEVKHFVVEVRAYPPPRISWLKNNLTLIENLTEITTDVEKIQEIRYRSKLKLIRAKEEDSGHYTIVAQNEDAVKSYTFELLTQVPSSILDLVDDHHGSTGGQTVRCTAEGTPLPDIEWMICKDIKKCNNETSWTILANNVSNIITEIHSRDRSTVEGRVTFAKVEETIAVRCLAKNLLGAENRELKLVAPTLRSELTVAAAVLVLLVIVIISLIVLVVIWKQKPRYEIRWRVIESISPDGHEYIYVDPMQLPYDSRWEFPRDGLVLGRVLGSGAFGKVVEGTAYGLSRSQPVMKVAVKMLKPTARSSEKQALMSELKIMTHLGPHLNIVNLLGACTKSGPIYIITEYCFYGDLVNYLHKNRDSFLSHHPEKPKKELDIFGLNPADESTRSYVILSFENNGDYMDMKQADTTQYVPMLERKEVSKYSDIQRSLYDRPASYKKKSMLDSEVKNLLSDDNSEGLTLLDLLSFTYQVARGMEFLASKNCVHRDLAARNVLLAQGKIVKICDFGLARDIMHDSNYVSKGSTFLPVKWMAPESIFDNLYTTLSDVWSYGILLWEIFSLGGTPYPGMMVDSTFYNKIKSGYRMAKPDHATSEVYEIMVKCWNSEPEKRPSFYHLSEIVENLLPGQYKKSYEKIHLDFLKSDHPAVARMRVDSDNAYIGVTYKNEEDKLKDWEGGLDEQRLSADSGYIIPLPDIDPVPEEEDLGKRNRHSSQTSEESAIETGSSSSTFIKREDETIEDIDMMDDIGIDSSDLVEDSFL
smiles,measurement,setting,value
C=CC(=O)N1CCC[C@@H](n2nc(-c3ccc(Oc4ccccc4)cc3)c3c(N)ncnc32)C1 [Ibrutinib],IC50,PI3K,> 10 µM
same,IC50,P38,> 10 µM
same,IC50,PDGFRa,0.718 µM
